In test [1] the test system is PH-HFpEF patients. Nature of the test: HELP Study open-label lead-in phase: 24-hour levosimendan infusion, right heart catheterization at rest and 25 watt exercise. It counts as in vivo, human. The text has this:
Enrolled PH-HFpEF subjects receive a lead-in 24-hour levosimendan infusion to determine their hemodynamic response and eligibility for the double-blind phase of the study. A total of 36 “responders” are randomized in the double-blind, placebo-controlled phase. “Responders” are identified as those subjects with a ≥4 mmHg reduction in PCWP during bicycle exercise (25 watts) and no more than a 10% decrease in cardiac index between the baseline measurements and repeated measurements following the initial infusion.
Study drug is administered via i.v. infusion over 24 hours weekly through Week 5 via a PICC line. Infusions (Week 2-5) are done in the subject's home by a study nurse. Patients return to the study site for a visit between the Week 3 and Week 4 infusions for assessment of subject safety/response and need for dose adjustment. Each subject is to return on Week 6 for assessment of efficacy and safety on study drug. A right heart catheter will be inserted to obtain hemodynamic measurements at rest and exercise at baseline, the following day after the lead-in 24-hour infusion, and during Week 6.
During the Lead-in phase, levosimendan, supplied as a concentrated solution (2.5 mg/mL), is mixed with diluent and administered intravenously at 0.10 μg/kg/min for 24 hours +/−30 min.
Visits during the Lead-In phase of the trial require a subject to be hospitalized for the entire infusion period, which at a minimum will last 24 hours. Once the infusion is complete, hemodynamic measurements are collected to ensure subject eligibility. Visits for Week 2 through Week 6 are calculated based on the date of the Lead-in infusion.
During the Lead-in Infusion (Day 0) the following procedures are performed: Measure vital signs (BP, PR, respiratory rate, temperature), venous sheath placement for right heart catheterization (The sheath will remain following the baseline study, and the patient is hospitalized where they receive the 24-hour levosimendan infusion (preferably through the venous sheath). The sheath is then used for access for the right heart catheterization study following the 24-hour levosimendan infusion, and then removed), right heart catheterization measurements: baseline (prior to levosimendan infusion) and post 24-hour infusion to establish qualifying baseline hemodynamics at rest and exercise and to establish qualifying response to levosimendan during exercise, assess adverse events, assess concomitant medications and/or procedures, pharmacokinetic sampling (to be taken at the end of infusion: 24+/−2 hours), genotyping sampling (to be taken at the end of infusion: 24+/−2 hours). […] A PICC line is placed in patients that meet eligibility criteria and who are randomized into the Double-Blind phase of the study.

For test [2], the system named is PH-HFpEF patients. Nature of the test: Open-label extension (rollover) study: six-minute walk distance and Likert quality of life. It counts as in vivo, human. The protocol:
This is an open-label rollover study to allow patients to continue levosimendan treatment if the patient has tolerated treatment in the HELP clinical study seen in Example 1.
Study drug concentrated solution (2.5 mg/mL), levosimendan, is mixed with diluent and administered as weekly infusions at 0.075 μg/kg/min for 24 hrs. Patients may have a dose escalation at Weeks 3 at a rate of 0.10 μg/kg/min for 24 hours, unless there has been a meaningful change in blood pressure or heart rate or other prohibitive rationale.
Visits at Weeks 3, 6, 12, 24, 48 and Follow-Up Visit (at termination) are performed within 72 hours of the scheduled weekly visit. These visits are performed at the investigator's office. The Follow-Up Visit (at termination) is calculated as the earlier of two years from the subject's date of entry into this extension study or as soon as possible after study discontinuation, but within 1 week. During this visit, the following procedures are performed: Vital signs; body weight (Week 3 only); 6MWT; Quality of Life assessment; NYHA Functional Class; Physician Assessment; assess adverse events, and concomitant medications and/or procedures.

[3] abbreviates: individual patients, after 24-hour lead-in infusion, 25 watts exercise.
Where [4] appears, read: individual patients, after 24-hour lead-in infusion, rest legs down.
The mark [5] stands for this setting: individual patients, post vs pre, 25 watts exercise.
Where [6] appears, read: individual patients, post vs pre, rest legs down.

Structures are written as SMILES. Where “and” joins values, the source holds several entries; their conditions need not be identical. Equal values may be shown once.

Regarding `C[C@@H]1CC(=O)NN=C1c1ccc(NN=C(C#N)C#N)cc1` [levosimendan, Levosimendan], the “right atrial pressure during 25 watts of exercise after levosimendan, average” value in the test on PH-HFpEF patients [1] (first 30 randomized patients, baseline 27.9) is listed as 23.0 mmHg. Further, the “pulmonary capillary wedge pressure during 25 watts of exercise after levosimendan, average” value with PH-HFpEF patients [1] (first 30 randomized patients, baseline 33.2) turned out to be 25.7 mmHg. For the same compound, in the test with PH-HFpEF patients [1] (first 30 randomized patients, baseline 42.4), the “mean pulmonary arterial pressure during rest after levosimendan, average” value turned out to be 37.0 mmHg. In the test with PH-HFpEF patients [1] (first 30 randomized patients, baseline 58.3), the “mean pulmonary arterial pressure during 25 watts of exercise after levosimendan, average” value amounted to 53.3 mmHg. In the test on PH-HFpEF patients [1] (setting [3]), the “Exercise CO Post” value is 3.55 l/min and 3.25 l/min and 5.5 l/min and 5.05 l/min and 9.1 l/min (2×) and 4.68 l/min and 5.725 l/min and 5.9 l/min and 9 l/min and 7.65 l/min and 11.3 l/min and 7.9 l/min and 7.1 l/min and 12.8 l/min and 5.2 l/min and 8.0 l/min and 10.5 l/min and 4.2 l/min and 13.9 l/min and 7.2 l/min and 10.6 l/min and 11.1 l/min and 5.4 l/min and 6.5 l/min (2×) and 4.23 l/min and 6.93 l/min and 6.05 l/min and 7.7 l/min; the “PCWP Exercise Post” value is 27 mmHg and 33 mmHg (2×) and 23 mmHg (2×) and 42 mmHg and 35 mmHg and 20 mmHg (2×) and 15 mmHg (2×) and 31 mmHg (2×) and 18 mmHg (4×) and 28 mmHg (4×) and 30 mmHg and 22 mmHg and 24 mmHg and 19 mmHg (2×) and 25 mmHg and 29 mmHg and 34 mmHg and 37 mmHg; the “RAP (Exercise) Post” value is 34 mmHg and 17 mmHg (2×) and 10 mmHg and 20 mmHg (4×) and 16 mmHg (3×) and 24 mmHg and 36 mmHg and 18 mmHg and 12 mmHg (3×) and 22 mmHg and 29 mmHg (2×) and 25 mmHg (3×) and 28 mmHg (2×) and 19 mmHg and 38 mmHg (2×) and 37 mmHg and 26 mmHg; the “mPAP Exercise Post” value was 52 mmHg (4×) and 47 mmHg (3×) and 67 mmHg and 48 mmHg and 40 mmHg and 80 mmHg and 57 mmHg and 38 mmHg (3×) and 35 mmHg and 50 mmHg and 55 mmHg and 51 mmHg (2×) and 58 mmHg and 27 mmHg and 60 mmHg and 66 mmHg and 36 mmHg and 81 mmHg and 68 mmHg (2×) and 75 mmHg and 62 mmHg. Further, in the test with PH-HFpEF patients [1] (setting [4]), the “RAP (Rest-down) Post” value is 17 mmHg and 5 mmHg and 4 mmHg and 12 mmHg (6×) and 7 mmHg and 18 mmHg (2×) and 3 mmHg and 8 mmHg (2×) and 9 mmHg (2×) and 13 mmHg (2×) and 10 mmHg (3×) and 11 mmHg (2×) and 15 mmHg (2×) and 1 mmHg and 14 mmHg and 19 mmHg and 20 mmHg; the “Rest (down) CO Post-Levo” value is 3.0 l/min and 3.2 l/min and 4.5 l/min and 3.8 l/min (2×) and 6.9 l/min and 6.2 l/min and 4.2 l/min and 5.2 l/min and 6.5 l/min (2×) and 5.3 l/min (3×) and 5.6 l/min and 7.6 l/min and 4.1 l/min and 6.0 l/min and 8.6 l/min and 5.9 l/min and 4.3 l/min and 6.4 l/min and 4.0 l/min and 11.0 l/min and 4.7 l/min and 4.4 l/min and 3.9 l/min and 5.4 l/min and 5.8 l/min and 7.0 l/min; the “mPAP Rest (down) Post-Levo” value was 45 mmHg and 27 mmHg and 35 mmHg (2×) and 25 mmHg and 21 mmHg (2×) and 65 mmHg and 38 mmHg and 28 mmHg (2×) and 37 mmHg (2×) and 30 mmHg (2×) and 42 mmHg and 41 mmHg and 26 mmHg (2×) and 46 mmHg and 24 mmHg (2×) and 29 mmHg and 34 mmHg and 32 mmHg and 62 mmHg and 57 mmHg (2×) and 59 mmHg and 49 mmHg. Moreover, the “PCWP-Rest (down) Post-Levo” value with PH-HFpEF patients [1] (individual patients, n=30 responders, after 24-hour lead-in infusion, rest legs down) was 17 mmHg (6×) and 19 mmHg (2×) and 12 mmHg (2×) and 21 mmHg (3×) and 18 mmHg and 23 mmHg (2×) and 14 mmHg (3×) and 16 mmHg (2×) and 29 mmHg and 8 mmHg (2×) and 22 mmHg and 20 mmHg (2×) and 15 mmHg and 13 mmHg and 27 mmHg. Further, the “PCWP-Rest (down) Change” value with PH-HFpEF patients [1] (individual patients, post vs pre levosimendan lead-in infusion, rest legs down) is −3 mmHg (5×) and −8 mmHg and −11 mmHg (2×) and 1 mmHg and −12 mmHg (2×) and 3 mmHg and −6 mmHg (2×) and −18 mmHg and −13 mmHg (2×) and −2 mmHg (3×) and −5 mmHg (2×) and 2 mmHg and 0 mmHg and −10 mmHg and −9 mmHg and −14 mmHg and −1 mmHg (2×) and −4 mmHg. In the test on PH-HFpEF patients [1] (setting [5]), the “Exercise CO Change” value is 0.4 l/min (2×) and 0.0 l/min (2×) and 0.8 l/min (3×) and −0.3 l/min (2×) and −0.2 l/min (2×) and 0.3 l/min and 1.7 l/min (2×) and 0.2 l/min (2×) and 1.8 l/min (2×) and 1.9 l/min and −1.7 l/min and 4.8 l/min and 1.5 l/min and 0.1 l/min and −0.5 l/min (2×) and −1.0 l/min and 0.9 l/min and 1.0 l/min and 1.4 l/min and 1.3 l/min; the “PCWP Exercise Change” value is −8 mmHg (3×) and −7 mmHg (4×) and −13 mmHg and −5 mmHg (7×) and −10 mmHg and −4 mmHg (3×) and −22 mmHg and −14 mmHg (2×) and −6 mmHg (6×) and −9 mmHg (2×); the “RAP (Exercise) Change” value is −8 mmHg (5×) and −4 mmHg and −3 mmHg (3×) and −6 mmHg (2×) and −12 mmHg and −11 mmHg and 1 mmHg (3×) and −18 mmHg and −9 mmHg and −5 mmHg (2×) and −14 mmHg and −2 mmHg (3×) and 3 mmHg and 6 mmHg and 0 mmHg (2×) and −15 mmHg and −1 mmHg; the “mPAP Exercise Change” value was −7 mmHg and −3 mmHg (4×) and −15 mmHg (2×) and −5 mmHg (2×) and 2 mmHg and −22 mmHg and −13 mmHg (2×) and 4 mmHg (2×) and −8 mmHg (2×) and −9 mmHg and 12 mmHg and −4 mmHg (2×) and −2 mmHg and 1 mmHg (3×) and 6 mmHg and −11 mmHg and −12 mmHg (2×) and −6 mmHg. Further, in the test with PH-HFpEF patients [1] (setting [6]), the “RAP (Rest-down) Change” value is −3 mmHg (3×) and −4 mmHg (5×) and 0 mmHg (3×) and −5 mmHg (6×) and 1 mmHg and −23 mmHg and −1 mmHg and −7 mmHg (3×) and −6 mmHg (2×) and −2 mmHg (2×) and −9 mmHg (2×) and −8 mmHg; the “Rest (down) CO Change” value is 0.17 l/min and 0.23 l/min (2×) and 0.27 l/min and 0.43 l/min and 1.06 l/min (2×) and 0.05 l/min and 0.62 l/min and 1.40 l/min and −0.07 l/min and 0.67 l/min and 2.03 l/min and −0.97 l/min and 1.03 l/min and 1.60 l/min and 0.00 l/min and 0.20 l/min and −0.53 l/min (2×) and 0.07 l/min and −0.47 l/min and 0.13 l/min and −1.07 l/min and −1.87 l/min and −0.30 l/min and 0.85 l/min and 1.50 l/min and 1.20 l/min and 0.87 l/min; the “mPAP Rest (down) Change” value was −5 mmHg (2×) and −8 mmHg (2×) and −11 mmHg (2×) and 1 mmHg and −10 mmHg (2×) and 5 mmHg (3×) and −2 mmHg (2×) and −22 mmHg and −12 mmHg (2×) and 2 mmHg (2×) and −9 mmHg (4×) and 3 mmHg and −6 mmHg and −4 mmHg and −13 mmHg and −14 mmHg and 6 mmHg and 0 mmHg. Further, in the test on PH-HFpEF patients [2] (n=8), the “increase of six-minute walk distance, average” value is reported as 30 meters and the “patients with increased overall sense of well-being (five-point Likert Scale)” value is on record as 7 out of 8. Moreover, the “six-minute walk distance after levosimendan, average” value in the test with PH-HFpEF patients [2] (n=8, baseline 292) amounted to 322 meters. Besides, the “improvement on the five-point Likert scale” value in the test on PH-HFpEF patients [2] (patients who improved) was 1-2 points.

These data come from patent publication US11701355B2, “Levosimendan for treating pulmonary hypertension with heart failure with preserved ejection fraction (PH-HFpEF)” (Tenax Therapeutics, Inc., priority 2019, dated 2023).
